# Assay results from paper PMC12816392, “Salmonella relies on siderophore exploitation at low pH” (microLife, 2026).
# Molecular target: FoxA (Salmonella enterica, UniProt E1W8M5)
# Assay: […]-DFOE radioligand binding to whole Salmonella cells expressing FoxA, at […]-4 °C with CCCP, filtration and scintillation counting; pH […] and […]
# Format: cell-based
# Sequence of FoxA (E1W8M5 31-702): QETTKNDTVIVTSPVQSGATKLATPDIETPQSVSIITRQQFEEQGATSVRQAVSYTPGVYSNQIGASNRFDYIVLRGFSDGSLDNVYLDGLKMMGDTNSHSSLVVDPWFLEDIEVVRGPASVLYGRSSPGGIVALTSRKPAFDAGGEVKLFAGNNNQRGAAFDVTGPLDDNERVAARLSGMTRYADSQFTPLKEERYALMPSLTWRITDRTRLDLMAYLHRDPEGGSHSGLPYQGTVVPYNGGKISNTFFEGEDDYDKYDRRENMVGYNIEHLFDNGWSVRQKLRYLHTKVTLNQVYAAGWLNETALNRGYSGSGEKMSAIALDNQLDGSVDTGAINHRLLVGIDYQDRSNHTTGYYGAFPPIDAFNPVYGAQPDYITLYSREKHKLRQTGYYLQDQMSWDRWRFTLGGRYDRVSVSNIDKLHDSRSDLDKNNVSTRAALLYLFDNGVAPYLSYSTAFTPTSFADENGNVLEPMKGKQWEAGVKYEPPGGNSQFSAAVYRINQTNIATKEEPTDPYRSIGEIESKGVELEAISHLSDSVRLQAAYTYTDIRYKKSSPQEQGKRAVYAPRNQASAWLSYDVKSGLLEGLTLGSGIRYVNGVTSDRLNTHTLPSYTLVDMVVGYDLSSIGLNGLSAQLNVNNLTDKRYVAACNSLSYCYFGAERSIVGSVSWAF
smiles,measurement,value
"O=C1CCC(=O)N(O)CCCCCNC(=O)CCC(=O)N(O)CCCCCNC(=O)CCC(=O)N(O)CCCCCN1 [DFOE, ferrioxamine E]",Kd,~3.2 nM
